Assay results: publication PMC4515351 (Parasitology, 2014)
Where two headings read alike, the source gives them in different places.

Tests used:
FhGALE = FhGALE (Fasciola hepatica, UniProt A0A3G0ZAV7); type: binding; details: for Effect on melting temperature (Tm) of FhGALE: thermal scanning fluorimetry, FhGALE 3.0 µM; for Kd: read-out: apparent dissociation constant (KD,app)
HsGALE (human GALE) = target: T1, HsGALE (human GALE) (Homo sapiens, UniProt Q14376); assay: HsGALE inhibition, coupled enzyme assay with UDP-glucose dehydrogenase; type: biochemical
T1 sequence (Q14376 1-348): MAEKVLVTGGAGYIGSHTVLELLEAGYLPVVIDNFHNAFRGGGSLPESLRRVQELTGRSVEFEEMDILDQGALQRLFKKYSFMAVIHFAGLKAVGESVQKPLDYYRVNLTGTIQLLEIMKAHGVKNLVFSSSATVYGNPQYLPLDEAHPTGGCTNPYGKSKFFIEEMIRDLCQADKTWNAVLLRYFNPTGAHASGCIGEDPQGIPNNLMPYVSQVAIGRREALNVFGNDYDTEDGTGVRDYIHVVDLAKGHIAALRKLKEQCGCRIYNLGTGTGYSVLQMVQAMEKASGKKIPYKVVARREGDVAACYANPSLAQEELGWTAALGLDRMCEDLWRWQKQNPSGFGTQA

[1] = target: FhGALE (Fasciola hepatica UDP-galactose 4’-epimerase) (Fasciola hepatica, UniProt A0A3G0ZAV7); assay: biochemical; type: biochemical; details: for Selectivity of inhibition, FhGALE versus HsGALE (in words): as judged by respective IC50 values; for IC50 range in words: under the conditions tested, summary of Table 1
[2] = tested on: UDP-glucose dehydrogenase; details: 100 µM compound, 0.17 mM UDP-glucose, […] NAD+

Structure (SMILES)	Effect on melting temperature (Tm) of FhGALE (FhGALE)	IC50 (HsGALE (human GALE)) [µM]	IC50 [1] [µM]	Selectivity of inhibition, FhGALE versus HsGALE (in words) [1]	IC50 range in words [1]	Kd (FhGALE) [µM]	Selectivity of inhibition, FhGALE versus HsGALE (in words) ([1]; listed as 5-fluoroorotate)	IC50 ([1]; read-out: FhGALE IC50, pH 7.5) [µM]	Effect on rate of coupling enzyme UDP-glucose dehydrogenase [2]	Selectivity of inhibition, FhGALE versus HsGALE (in words) ([1]; listed as N-[(benzyloxy)carbonyl]leucyltryptophan)
NC(=O)c1ccc[n+]([C@@H]2O[C@H](COP(=O)([O-])OP(=O)(O)OC[C@H]3O[C@@H](n4cnc5c(N)ncnc54)[C@H](O)[C@@H]3O)[C@@H](O)[C@H]2O)c1 [NAD^+]	no measurable effect									
CC(C)c1nc2c([nH]1)c(=O)n(C)c(=O)n2C [NSC14303]		0.013 ± 0.006	0.3 ± 0.11	inhibited the human enzyme to a greater extent than the liver fluke one	submicromolar					
CC1(C)OC2C(CO)OC(n3cnc4c(=S)nc[nH]c43)C2O1 (centres unmarked) [NSC27305, 9-[6-(hydroxymethyl)-2,2-dimethyltetrahydrofuro[3,4-d][1,3]dioxol-4-yl]-3,9-dihydro-6H-purine-6-thione]		0.0061 ± 0.0092	0.00011 ± 0.00012	inhibited both enzymes to approximately the same extent	sub-nanomolar					
O=C1NC(=O)C(F)C(C(=O)O)N1 (centres unmarked) [NSC31712, 5-fluoro-2,6-dioxohexahydropyrimidine-4-carboxylate]	reducing the Tm in a concentration dependent manner			inhibited FhGALE several orders of magnitude more strongly than HsGALE	submicromolar	1900 ± 900	selectivity for FhGALE over HsGALE	0.03 ± 0.011		
Cn1c(=O)c2[nH]c(COc3ccc(C(C)(C)C)cc3)nc2n(C)c1=O [NSC36525, 8-[(4-tert-butylphenoxy)methyl]-1,3-dimethyl-3,7-dihydro-1H-purine-2,6-dione]		9.5 ± 8.2	260	inhibited the human enzyme to a greater extent than the liver fluke one						
CCOc1ccc(NC(=O)c2cc3ccccc3cc2O)cc1 [NSC50690, N-(4-ethoxyphenyl)-3-hydroxynaphthalene-2-carboxamide]		0.045 ± 0.023	0.061 ± 0.02	inhibited both enzymes to approximately the same extent	submicromolar					
COc1cccc(OCC(O)CN2CCN(c3ccccc3)CC2)c1 (centres unmarked) [NSC91378]									affect the rate	
CC(C)CC(NC(=O)OCc1ccccc1)C(=O)NC(Cc1c[nH]c2ccccc12)C(=O)O (centres unmarked) [NSC335979, (3-(1H–indol-3-yl)-2-[[4-methyl-2-(phenylmethoxycarbonylamino)pentanoyl]amino]propionate)]	reducing the Tm in a concentration dependent manner			inhibited FhGALE several orders of magnitude more strongly than HsGALE	submicromolar	210 ± 20		0.1 ± 0.046		selectivity for FhGALE over HsGALE
